PubChem BioAssay AID2060499 (Molecular Pharmacology Branch, DTP, NCI, 2025)

System: 777334-354-R2-J4-PDC tumor spheroids with HUVEC/MSC, viability
Assay: Anticancer human tumor 777334-354-R2-J4-PDC patient-derived pancreatic adenocarcinoma cell line growth inhibition [GQUAD]
Settings: for IC50: curve of first compound; for viability, T/C: stronger effect = lower value
Source text: DNA G-quadruplex Stabilizer Agents in Combinations in Complex Spheroids
A high-throughput screen of multi-cell type tumor spheroids was designed to identify active combinations of DNA G-quadruplex stabilizer agents and targeted small molecules. Complex spheroids include a stromal component modeled by human endothelial cells (HUVEC) and fibroblasts modeled by human mesenchymal stem cells (MSCs). The concentration ranges selected for each drug and investigational agent were based upon clinically achievable concentrations if the clinical Cmax of the agent was known.
Compounds. The drugs and investigational agents: pidnarulex (CX-5461; NSC782164), APTO-253 (NSC789042), BRACO-19 (NSC847499), peposertib (NSC802822), ceralasertib (NSC780249), elimusertib (NSC800525), camonsertib (NSC841442), AZD-1390 (NSC803789), olaparib (NSC753686), talazoparib (NSC767125), ART-558 (NSC835418), sotorasib (NSC818433), MRTX-1133 (NSC836407), SN-38 (NSC673596), topotecan (NSC609699), etoposide (NSC141540), doxorubicin (NSC123127), gemcitabine (NSC613327), 5-fluorouracil (NSC19893), paclitaxel (NSC125973), vemurafenib (NSC761431), panobinostat (NSC761190), R-306465 (JNJ-16241199; NSC773264), adavosertib (NSC754352), TP-3654 (NSC805149), carboplatin (NSC241240), KSQ-4279 (NSC840948), and staurosporine (NSC755774) were obtained from the National Cancer Institute (NCI) Developmental Therapeutics Program Chemical Repository (34). The FDA-approved anticancer drug set is available from the NCI Developmental Therapeutics Program. […] The stock solutions were prepared in dimethyl sulfoxide (DMSO, Sigma-Aldrich, St. Louis, MO, cat. D2650) at 800-fold the tested concentration and stored at -70 degrees C prior to their use. All drugs and investigational agents were tested over a range starting from a high concentration at or near the clinical Cmax and decreasing in half-log increments. If the clinical Cmax for an agent had not been determined, the highest concentration tested was 10 microM.
2.3 Cell Culture. All cells were maintained in an incubator at 37 degrees C and 5% CO2 with 95% humidity. The PDC lines were cultured according to standard operating procedures established by the NCI PDMR. All PDCs were thawed and cultured in Matrigel-coated flasks prepared with a working solution of 1X Ham's F-12 nutrient mix, without supplementation (Invitrogen, cat. 11765054), 100 U/mL penicillin-streptomycin (Invitrogen, cat. 15140122), and 2.5% Matrigel (Corning Inc., cat. 354248) for the first three passages. The 857933-349-R-J2-PDC line was cultured in 6C/Colon 1B media, which includes advanced DMEM/F-12 (Thermo Fisher Scientific, cat. 12634028), 10 mM HEPES (Thermo Fisher Scientific, cat. 15630080), 1X GlutaMAX supplement (Thermo Fisher Scientific, cat. 35050061), 0.1 mg/mL primocin (InvivoGen, cat. ant-pm-2), 10% defined fetal bovine serum, heat inactivated (HyClone Laboratories Inc., cat. SH30070.03HI), 50% L-WRN conditioned media (ATCC, cat. CRL-3276), 1.25 mM N-Acetyl-L-cysteine (Sigma-Aldrich, cat. A9165), 10 mM nicotinamide (Sigma-Aldrich, cat. N0636), 1X B-27 supplement (Thermo Fisher Scientific, cat. 17504044), 1X N-2 supplement (Thermo Fisher Scientific, cat. 17502048), 10 microM Y-27632 dihydrochloride (Tocris Bioscience, cat. 1254), and 50 ng/mL human EGF recombinant protein (Thermo Fisher Scientific, cat. PHG0311). The 485176-168-R4-J1-PDC line was cultured in Panc media, which includes all 6C/Colon 1B media components plus 100 ng/mL human FGF-10 (Thermo Fisher Scientific, cat. 100-26), 500 nM SB-431542 (Selleckchem, cat. S1067), and gastrin (Tocris, cat. 3006).
[…]
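Note: spheroids exposed to compounds for 7 days before readout.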

SMILES: Nc1ccn(C2OC(CO)C(O)C2(F)F)c(=O)n1 (configuration not stated) + Cc1[nH]c2ccc(F)cc2c1-c1nc2c3cccnc3c3ncccc3c2[nH]1
- IC50 (second compound 0.0316 µM): 931 nM
- IC50 (second compound 0.1 µM): 1140 nM
- IC50 (second compound 0.316 µM): 809 nM
- IC50 (second compound 1 µM): 466 nM
- IC50 (second compound 3.16 µM): < 31.6 nM
- IC50 (second compound 10 µM): < 31.6 nM
- viability, T/C (second compound 0.0316 µM, first compound 0.0316 µM): 88%
- viability, T/C (second compound 0.0316 µM, first compound 0.1 µM): 67.5%
- viability, T/C (second compound 0.0316 µM, first compound 0.316 µM): 65%
- viability, T/C (second compound 0.0316 µM, first compound 1 µM): 46.3%
- viability, T/C (second compound 0.0316 µM, first compound 3.16 µM): 41.6%
- viability, T/C (second compound 0.0316 µM, first compound 10 µM): 34%
- viability, T/C (second compound 0.1 µM, first compound 0.0316 µM): 90.2%
- viability, T/C (second compound 0.1 µM, first compound 0.1 µM): 74%
- viability, T/C (second compound 0.1 µM, first compound 0.316 µM): 69.2%
- viability, T/C (second compound 0.1 µM, first compound 1 µM): 47.6%
- viability, T/C (second compound 0.1 µM, first compound 3.16 µM): 41.3%
- viability, T/C (second compound 0.1 µM, first compound 10 µM): 32.1%
- viability, T/C (second compound 0.316 µM, first compound 0.0316 µM): 75.5%
- viability, T/C (second compound 0.316 µM, first compound 0.1 µM): 84.7%
- viability, T/C (second compound 0.316 µM, first compound 0.316 µM): 59.4%
- viability, T/C (second compound 0.316 µM, first compound 1 µM): 49.7%
- viability, T/C (second compound 0.316 µM, first compound 3.16 µM): 39.8%
- viability, T/C (second compound 0.316 µM, first compound 10 µM): 35.5%
- viability, T/C (second compound 1 µM, first compound 0.0316 µM): 73.5%
- viability, T/C (second compound 1 µM, first compound 0.1 µM): 68%
- viability, T/C (second compound 1 µM, first compound 0.316 µM): 52.6%
- viability, T/C (second compound 1 µM, first compound 1 µM): 40.7%
- viability, T/C (second compound 1 µM, first compound 3.16 µM): 39.4%
- viability, T/C (second compound 1 µM, first compound 10 µM): 29.3%
- viability, T/C (second compound 3.16 µM, first compound 0.0316 µM): 36.6%
- viability, T/C (second compound 3.16 µM, first compound 0.1 µM): 31.7%
- viability, T/C (second compound 3.16 µM, first compound 0.316 µM): 30.7%
- viability, T/C (second compound 3.16 µM, first compound 1 µM): 13.8%
- viability, T/C (second compound 3.16 µM, first compound 3.16 µM): 13.6%
- viability, T/C (second compound 3.16 µM, first compound 10 µM): 12.9%
- viability, T/C (second compound 10 µM, first compound 0.0316 µM): 30%
- viability, T/C (second compound 10 µM, first compound 0.1 µM): 26.9%
- viability, T/C (second compound 10 µM, first compound 0.316 µM): 16.2%
- viability, T/C (second compound 10 µM, first compound 1 µM): 10.3%
- viability, T/C (second compound 10 µM, first compound 3.16 µM): 8.66%
- viability, T/C (second compound 10 µM, first compound 10 µM): 7.59%
